# From US6770632B1, “Folypolyglutamyl synthetase gene transfer to enhance antifolate” (priority 1999, dated 2004)
# “And” between values parts separate entries of the source, which are not always exact repeats. Equal entries are not always repeated. Where two headings read alike, the source gives them in different places.
# Experiments:
# [1] = system: rhabdomyosarcoma cell line; conditions: rhabdomyosarcoma cell line transfected with rabbit carboxylesterase cDNA; cited from earlier work
# [2] = system: 9L cells; assay: Cell culture survival study, 9L cells; assay type: cell-based, rat; conditions: Rattus norvegicus, 4 h, 9L, read-out: ED50 (the source's name)
# Procedure: (§1) Cell Culture Survival Studies: Cells were plated in triplicate at 8×10^5 cells per 10-cm-diameter plate, and were allowed to adhere for 4 hours, after which the medium was replaced with medium containing MTX or EDX. […] Drug-free medium was then added, and three days later the cells were trypsinized and counted on a model ZM Coulter apparatus. Dose-response curves were generated using Sigma Plot 3.0, which employs curve-fitting parameters based on the Marquardt-Levenberg method (Marquardt, D. W., Siam, J., J. Soc. Indust. Appl. Math 11:431-441 (1963)).
# [3] = system: 9L/FPGS cells; assay: Cell culture survival study, 9L/FPGS cells; assay type: cell-based, rat; conditions: for EC50: Rattus norvegicus, 4 h, 9L/FPGS, read-out: ED50 (the source's name)
# Procedure: as §1
# [4] = system: cocultures of 9L/FPGS and 9L cells; assay: Bystander effect study, cocultures of 9L/FPGS and 9L cells; assay type: cell-based, rat; conditions: for EC50: Rattus norvegicus, 4 h, 4 hrs drug exposure, FIG. 4b, read-out: ED50 (the source's name); for transmission efficiency (TE): 4 hour pulses
# Procedure: For bystander effect studies, cells were plated in triplicate with varying combinations of 9L/FPGS and 9L cells such that the total number of cells was 8×10^5 per 10-cm-diameter plate. The same protocol of 4 hour cell adherence followed by 4 hour drug exposure, washes, growth in drug free medium for 3 days, and counting on a ZM coulter apparatus was then followed. […] Four mL conditioned medium+2 mL fresh medium were added to 10-cm-diameter plates containing 9L/BAG cells plated overnight (1000 cells/dish, with a clonogenic efficiency of approximately 20%). Six days later, the cells were fixed with 4% paraformaldehyde in PBS. Fixed cells were stained for LacZ by incubating overnight in a solution containing 35 mM potassium ferricyanide, 35 mM potassium ferrocyanide, 2 mM magnesium chloride, and 0.2% 5-bromo-4-chloro-3-indolyl-β-D galactoside (Xgal; Fisher Scientific Co.;Pittsburgh, Pa.) at pH=7.3 (Price, J., et al., Proceedings of the National Academy of Sciences USA 84:156-160 (1987)). The next day, blue colonies greater than 1 mm in diameter were counted.
# However, a more quantitative approach is to generate a dose-response curve for nontransfected cells, transfected cells, and a coculture and to calculate the transmission efficiency (TE) for the coculture (Friedlos, F., et al., Journal of Medicinal Chemistry 40:1270-1275 (1997)). [formula]
# The superscripts 0, N, and 100 designate the ED50 values for cultures containing 0, N, and 100% transfected cells.
# [5] = system: 9L/BAG cells; assay: Conditioned medium colony formation of 9L/BAG cells; assay type: cell-based, rat
# Procedure: Four mL conditioned medium+2 mL fresh medium were added to 10-cm-diameter plates containing 9L/BAG cells plated overnight (1000 cells/dish, with a clonogenic efficiency of approximately 20%). Six days later, the cells were fixed with 4% paraformaldehyde in PBS. […] The next day, blue colonies greater than 1 mm in diameter were counted.
# This conditioned medium was then added to 9L/BAG cells. A week later, the cells were stained for LacZ expression, which allowed colony formation to be assayed.
# [6] = system: subcutaneous 9L tumors; assay: Growth of subcutaneous 9L tumors in nude mice; assay type: in vivo; conditions: 3 mg/kg daily i.p.
# Procedure: (§2) In Vivo Experiments: 10^5 9L or 9L/FPGS cells or a mixture of 8×10^5 9L+2×10^5 9L/FPGS cells in 200 μL DMEM were injected subcutaneously into the flanks of six week old female nude mice (NCr/Sed, nu/nu, 20 gm; Massachusetts General Hospital breeding colony). After 14 days, when the tumors had reached an average volume of 60 mm^3, the mice were randomly divided into experimental groups with five mice per group. Intraperitoneal injections of varying MTX or EDX doses dissolved in 200 μL 0.9% NaCl were administered either daily or every third day. Tumor size was measured weekly using calipers. Tumor volume was calculated as length×width×height, as described previously (Takamiya, Y., et al., Journal of Neuroscience Research 33:493-503 (1992)).
# [7] = system: subcutaneous 9L/FPGS tumors; assay: Growth of subcutaneous 9L/FPGS tumors in nude mice; assay type: in vivo; conditions: 3 mg/kg daily i.p.
# Procedure: as §2
# [8] = system: mixed subcutaneous tumors 20% 9L/FPGS and 80% 9L cells; assay: Growth of mixed subcutaneous tumors (20% 9L/FPGS + 80% 9L) in nude mice; assay type: in vivo; conditions: 3 mg/kg daily i.p.
# Procedure: as §2
# [9] = system: FPGS; conditions: relative to MTX; cited from earlier work
# [10] = in vivo; conditions: nude, mouse, ip
# [11] = system: 9L cells; assay: [3H]MTX accumulation and thin layer chromatography of MTX polyglutamates in 9L cells; conditions: 24 hour exposure to 2 μM MTX, TLC
# Procedure: (§3) Thin Layer Chromatography of MTX Metabolites: 10^6 9L or 9L/FPGS cells were plated in 6-cm diameter dishes and allowed to adhere for 4 hours, after which cells were incubated overnight with 2 μM 3′, 5′, 7-[^3H] methotrexate (Moravek Biochemicals; Brea, Calif.). Cells were then trypsinized, centrifuged, resuspended in 300 μL deionized water, and sonicated for 45 seconds at half-maximal power. Sonicated cells were centrifuged briefly to remove cellular debris, after which protein concentration was calculated using the Bradford protein assay. Proteins were precipitated with 1 mL methanol at −20° C. for 2 hr. Precipitated proteins were removed by centrifugation at 20,000 g for 30 min, and the supernatant was then concentrated to 30 μL under a stream of N2 at 37° C. on a Meyer N-Evap Analytical Evaporator (Organomation Associates Inc., Northborough, Mass.). A 1 μL aliquot was scintillation counted—cpm were converted into moles of drug taken up by determining the cpm of a known quantity of [^3H] MTX. […] Plates were eluted with a chloroforrn-methanol-acetic acid mixture (2:2:1) containing 20 mg/mL cetyl trimethylammonium bromide (Sigma). Following elution, the plates were placed under ordinary fluorescent light for 2 days, after which 20 nmol unlabelled standards were visualized under long-wave ultraviolet light. Plates were run in duplicate and the average RF values of the standards were: MTX=0.66; MTX-G1=0.59; MTX-G2=0.44, MTX-G3=0.33; MTX-G4=0.27; MTX-G5=0.25. Regions corresponding to where standards migrated were marked in the sample lane, scraped individually into scintillation vials, and counted. The amount of each radioactive metabolite in a sample lane was determined as a percentage of the total radioactivity recovered from that sample lane, after subtraction of the background counts obtained from lanes lacking radioactive sample.
# [12] = system: 9L/FPGS cells; assay: [3H]MTX accumulation and thin layer chromatography of MTX polyglutamates in 9L/FPGS cells; conditions: 24 hour exposure to 2 μM MTX, TLC
# Procedure: as §3
# [13] = system: 9L cells transfected with HSV-TK; conditions: 9L cells stably transfected with HSV-TK cDNA; cited from earlier work
# [14] = system: cocultures with nitroreductase-expressing cells; conditions: cited from earlier work
# [15] = system: 9L cells transfected with CD; conditions: 9L cells stably transfected with E. coli cytosine deaminase cDNA; cited from earlier work
# [16] = 4 hour pulse, repeat of the dose-response curve (Table 3 footnote c)
# [17] = 4 hrs drug exposure, curves of FIG. 1 (MTX) / FIG. 3a (EDX)
smiles,measurement,setting,value
CCc1c2c(nc3ccc(OC(=O)N4CCC(N5CCCCC5)CC4)cc13)-c1cc3c(c(=O)n1C2)COC(=O)[C@]3(O)CC [CPT-11],decrease in ED50 on transfection,[1],8 fold
"CCC(Cc1cnc2nc(N)nc(N)c2n1)c1ccc(C(=O)N[C@@H](CCC(=O)O)C(=O)O)cc1 (stereo partly shown) [EDX, Edatrexate]",EC50,[2]; [16],1200 nM
same,EC50,"[2]; 4 hrs drug exposure, bystander experiment FIG. 4b",895 nM
same,EC50,[2]; [17],1200 nM
same,survival,"[3]; 9L/FPGS cells, 300 nM, 4 hour pulse",below 10%
same,range of concentrations with statistically significant difference in survival between 9L and 9L/FPGS,[3]; 4 hour pulses,"10,000 fold"
same,difference in ED50 between 9L and 9L/FPGS,"[3]; 4 hour pulses, FIG. 1 / FIG. 3A",67 fold
same,EC50,[3]; [16],26 nM
same,EC50,"[3]; 4 hrs drug exposure, bystander experiment FIG. 4a (MTX) / 4b (EDX)",20 nM
same,EC50,[3]; [17],18 nM
same,EC50,[4]; coculture 1% 9L/FPGS,605 nM
same,EC50,[4]; coculture 10% 9L/FPGS,337 nM
same,EC50,[4]; coculture 20% 9L/FPGS,134 nM
same,transmission efficiency (TE),[4]; cocultures containing 1% 9L/FPGS cells,33.1% and 33%
same,transmission efficiency (TE),[4]; cocultures containing 10% 9L/FPGS cells,63.8% and 64%
same,transmission efficiency (TE),[4]; cocultures containing 20% 9L/FPGS cells,87%
same,9L/BAG colonies relative to conditioned medium from non-treated cells,[5]; conditioned medium from 9L cells pulsed with 0.3 μM for 4 hours,83%
same,9L/BAG colonies relative to conditioned medium from non-treated cells,[5]; conditioned medium from 9L/FPGS cells pulsed with 0.3 μM for 4 hours,47%
same,fold growth of tumor volume,[6]; after three weeks,10 fold
same,fold growth of tumor volume,[6]; after two weeks,8 fold
same,growth of tumor volume,[7]; after three weeks,doubled in volume
same,fold growth of tumor volume,[7]; after two weeks,less than 4 fold
same,fold growth of tumor volume,[8]; after three weeks,5 fold
same,fold growth of tumor volume,[8]; after two weeks,more than 4 fold
same,"Km of FPGS, lower than its Km for MTX",[9],4-5 fold
same,MTD,[10],3 mg/kg/day
CN(Cc1cnc2nc(N)nc(N)c2n1)c1ccc(C(=O)NC(CCC(=O)NC(CCC(=O)O)C(=O)O)C(=O)O)cc1 (stereo not shown) [MTX-G1],POLYGLUTAMATE DISTRIBUTION (percentages of total sample lane radioactivity),[11],29%
same,POLYGLUTAMATE DISTRIBUTION (percentages of total sample lane radioactivity),[12],22%
CN(Cc1cnc2nc(N)nc(N)c2n1)c1ccc(C(=O)NC(CCC(=O)NC(CCC(=O)NC(CCC(=O)NC(CCC(=O)NC(CCC(=O)NC(CCC(=O)O)C(=O)O)C(=O)O)C(=O)O)C(=O)O)C(=O)O)C(=O)O)cc1 (stereo not shown) [MTX-G5],POLYGLUTAMATE DISTRIBUTION (percentages of total sample lane radioactivity),[11],1%
same,POLYGLUTAMATE DISTRIBUTION (percentages of total sample lane radioactivity),[12],3%
CN(Cc1cnc2nc(N)nc(N)c2n1)c1ccc(C(=O)NC(CCC(=O)NC(CCC(=O)NC(CCC(=O)NC(CCC(=O)O)C(=O)O)C(=O)O)C(=O)O)C(=O)O)cc1 (stereo not shown) [MTX-G3],POLYGLUTAMATE DISTRIBUTION (percentages of total sample lane radioactivity),[11],13%
same,POLYGLUTAMATE DISTRIBUTION (percentages of total sample lane radioactivity),[12],18%
Nc1nc(O)c2ncn(COC(CO)CO)c2n1 [ganciclovir],ED50 shift nontransfected versus transfected cells,[13],500 fold
NC(=O)c1cc(N2CC2)c([N+](=O)[O-])cc1[N+](=O)[O-] [CB1954],TE values,[14]; 1% cocultures,above 50%
same,TE values,[14]; 10% cocultures,above 70%
CN(Cc1cnc2nc(N)nc(N)c2n1)c1ccc(C(=O)NC(CCC(=O)NC(CCC(=O)NC(CCC(=O)O)C(=O)O)C(=O)O)C(=O)O)cc1 (stereo not shown) [MTX-G2],POLYGLUTAMATE DISTRIBUTION (percentages of total sample lane radioactivity),[11],15%
same,POLYGLUTAMATE DISTRIBUTION (percentages of total sample lane radioactivity),[12],19%
CN(Cc1cnc2nc(N)nc(N)c2n1)c1ccc(C(=O)NC(CCC(=O)NC(CCC(=O)NC(CCC(=O)NC(CCC(=O)NC(CCC(=O)O)C(=O)O)C(=O)O)C(=O)O)C(=O)O)C(=O)O)cc1 (stereo not shown) [MTX-G4],POLYGLUTAMATE DISTRIBUTION (percentages of total sample lane radioactivity),[11],13%
same,POLYGLUTAMATE DISTRIBUTION (percentages of total sample lane radioactivity),[12],28%
Nc1nc(=O)[nH]cc1F [5-fluorocytosine],ED50 shift nontransfected versus transfected cells,[15],80 fold
